Numbers after ± are expanded uncertainties.
Tests used:
[1] = Crystal
[2] = Molar enthalpy of transition or fusion; conditions: Crystal; DSC

thermal conductivity ([1]; 296.15 K, 101.33 kPa, Hot disk method): 0.394 ± 0.081 W/m/K
Triple point temperature ([1]; DSC): 320.35 ± 4.1 K
Molar enthalpy of transition or fusion [2]: 43.4 ± 8.7 kJ/mol
SMILES: CCCCCCCCCCCC(=O)O [dodecanoic acid]

From the NIST ThermoML archive (doi:10.1016/j.tca.2018.04.002)
